Assay results: US6998129B2, “Cosmetic or dermatological composition comprising an association between an elastase inhibitor compound of the N-acylaminoamide family and at least one anti-inflammatory compound” (L'Oreal, priority 2001, dated 2006)

Assays:
[1] = tested on: surviving human skins treated by a human leukocyte elastase (ELH); experiment: ex vivo protection of elastic fibres in fresh human skin cuts treated with ELH for 2 hours (Example 4); assay type: cell-based; settings: 20° C.
Method: (§1) The ex vivo activity of example 2 compound has been evaluated on surviving human skins treated by a human leukocyte elastase (ELH).
(§2) The test is performed the following way.
Fresh human skin cuts from two different donors are treated for 2 hours, at 20° C., by 20 μl of a buffer solution (pH 7.4) optionally comprising 10 μg/ml ELH and optionally 0.1% of the compound to be tested, optionally previously put in solution in ethanol.
The elastic fibres are colored in blue using catechin (+) and quantified morphometrically using a computer assisted image analysis. The average derma surface percentage occupied by elastic fibres Is evaluated this way.

[2] = tested on: surviving human skins treated by a human leukocyte elastase (ELH); experiment: ex vivo protection of elastic fibres in human skin fragments kept surviving 10 days with ELH (Example 5); assay type: cell-based; settings: 0.5 μg ELH per ml; 5 μl of 0.2% solution in ethanol every two days; 10 days at 37° C.; three donors; control 7.4%, ELH alone 5.1%
Method: as §1, §2
Fragments of normal human skin from three different donors are deposited in inserts positioned in culture wells. Culture medium added with antibiotics is added in the bottom of the wells. A pass is performed through slow diffusion between the two compartments via a porous membrane (pore size: 12 μm).
(§3) The culture medium is renewed every three days.
On the skin fragments, optionally 0.5 μg ELH per ml culture medium are added.
5 μl of the compound to be tested are also added every two days, previously put in solution at 0.2% by weight in ethanol.
The skins are kept surviving for 10 days at 37° C.
The elastic fibres are colored in blue using catechin (+) and quantified morphometrically using a computer assisted image analysis, The average derma surface percentage occupied by elastic fibres is evaluated this way.

[3] = tested on: surviving human skins irradiated by UVA (8 J/cm^2); experiment: protection of elastic fibres and collagen in surviving human skins irradiated by UVA (Example 6); assay type: cell-based; settings: UVA 8 J/cm^2 once, 5 μl of 0.2% solution every two days, 7 days at 37° C.
Method: The activity of the example 2 compound has been evaluated on surviving human skins irradiated by UVA (8 J/cm^2).
as §2
Fragments of normal human skin from four different donors are deposited in inserts positioned in culture wells. Culture medium added with antibiotics is added in the bottom of the wells. A pass is performed through slow diffusion between the two compartments via a porous membrane (pore size: 12 μm).
as §3
On the skin fragments, every two days, 5 μl of the compound to be tested are added, previously put in solution at 0.2% wt in ethanol.
The skins are kept surviving for 7 days at 37° C.
The skins are radiated once at 8 J/cm^2 (RMX-3W Vilbert-Lourmat lamp).
The elastic fibres are colored in blue using catechin (+) and quantified morphometrically using a computer assisted image analysis. The average derma surface percentage occupied by elastic fibres is evaluated this way.

[4] = biological target: T1, human leukocyte elastase (ELH) (Homo sapiens, UniProt P08246); experiment: in vitro anti-elastasic activity on Me-OSAAPV-p-NA substrate; assay type: biochemical; settings: even in a small amount
T1 sequence (P08246 30-267): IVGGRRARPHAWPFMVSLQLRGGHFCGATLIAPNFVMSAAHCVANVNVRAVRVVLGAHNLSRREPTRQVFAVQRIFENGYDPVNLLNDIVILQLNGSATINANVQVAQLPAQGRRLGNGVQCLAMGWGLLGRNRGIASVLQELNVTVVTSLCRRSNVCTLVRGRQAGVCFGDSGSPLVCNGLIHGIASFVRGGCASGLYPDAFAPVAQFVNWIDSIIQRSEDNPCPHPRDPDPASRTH
Method: The anti-elastasic activity of compounds according to the invention is determined in vitro compared to the human leukocyte elastase (ELH).
The test is performed in the following way:
A Me-OSAAPV-p-NA (methyl-O-succinate alanine alanine proline valine-p-nitroaniline) substrate, onto which ELH (40 milli-units per ml) and 0.1% of the compound to be tested are applied, is left for incubating at 37° C. for 60 minutes.
Thereafter, the % inhibition of the control elastase activity is determined by spectrophotometry.

- inhibition of the elastase activity (in words) [4]: strong inhibition
Structure (SMILES): CC(=O)N(c1cccc(C(F)(F)F)c1)C(C(=O)NCC(=O)O)C(C)C (stereo not drawn) [Example 2, {2-[acetyl-(3-trifluoromethyl-phenyl)-amino]-3-méthyl-butyrylamino}acetic acid]
- % Surface occupied by elastic fibres ([1]; Skin 1, 10 μg/ml ELH + 0.1% compound, control 12.7%, ELH alone 4.85%): 13.95%
- % Surface occupied by elastic fibres ([1]; Skin 2, 10 μg/ml ELH + 0.1% compound, control 15.25%, ELH alone 6.85%): 11.85%
- % Surface occupied by elastic fibres [2]: 7.1%
- Elastic fibres morphometric analysis (superficial derma) ([3]; untreated 6.75%, UVA alone 3.9%): 6.8%
- Collagen morphometric analysis (superficial derma) ([3]; untreated 87%, UVA alone 81%): 92%
